Laboratory results: paper PMC6981581, “N-(2-Arylmethylthio-4-Chloro-5-Methylbenzenesulfonyl)amide Derivatives as Potential Antimicrobial Agents—Synthesis and Biological Studies” (International Journal of Molecular Sciences, 2019)
In brackets after ≈: the same amount, converted by molar mass. Several values for one entry are separate records, joined by “and”; a condition that tells them apart may be missing. Equal values may be shown once. Read-outs that look alike come from different tables or passages of the source.

Key:
[1] = system: HaCaT cell line (human keratinocyte); test: MTT cell viability assay; format: cell-based; conditions: MTT assay, 72 h incubation, mean ± SD, read-out: IC50 HaCaT
[2] = system: clinical isolates of methicillin-resistant S. aureus (50–54) and methicillin-sensitive S. aureus (55–59); test: Broth dilution MIC/MBC, summary over clinical S. aureus isolates; format: cell-based, Staphylococcus aureus
Text: (§1) […]. Both MRSA and MSSA strains were derived from various human infections.
(§2) […]. Five methicillin-resistant S. aureus strains were isolated from nose (n = 1), bronchoalveolar lavage (n = 1), sputum (n = 1), wound (n = 1), and blood (n = 1); five methicillin-susceptible S. aureus strains were isolated from throat (n = 1), bronchoalveolar lavage (n = 1), sputum (n = 1), abscess (n = 1), and blood (n = 1).
(§3) The identity of S. aureus isolates was confirmed with conventional methods and with Pastorex Staph-Plus latex agglutination kit (Bio-Rad, Marnes-la-Coquette, France) and verified applying the polymerase chain reaction (PCR) of S. aureus-specific region of the thermonuclease gene, nuc. Resistance to methicillin was first verified using cefoxitin disk (30 µg), and then, identified based on the presence of mecA gene. S. aureus ATCC®25923 (methicillin-susceptible) and S. aureus ATCC®43300 (MDR) were applied as the reference strains. Both the reference and clinical strains were stored at −80 °C, in Tryptic Soy Broth (TSB, Becton-Dickinson, Franklin Lakes, NJ, USA) supplemented with 15% glycerol.
(§4) A broth dilution method was used to determine minimal inhibitory concentration (MIC) for tested compounds as recommended by Clinical Laboratory Standards Institute (CLSI) guidelines. Investigated compounds were diluted in Mueller Hinton Broth 2 (Sigma-Aldrich Co., St. Louis, MO, USA) in polypropylene 96-well plates and initial inoculum 5 × 10^5 cfu/mL were incubated at 37 °C for 18 h. MIC was taken as the lowest drug concentration at which an observable growth was inhibited. […] The loopful (10 µL) of the tested sample was transferred to Tryptic Soy Agar (TSA, Becton-Dickinson, Franklin Lakes, NJ, USA) and incubated at 37 °C for 48 h. […] Drug Solutions were made fresh on the day of the assay. All experiments were performed in triplicate.

S.aureus 58 (MSSA) = test: Broth dilution MIC/MBC, clinical MSSA isolate; format: cell-based; conditions: Staphylococcus aureus, clinical MSSA S.aureus 58
Text: as §1, §2, §3, §4

S.aureus 59 (MSSA) = test: Broth dilution MIC/MBC, clinical MSSA isolate; format: cell-based; conditions: Staphylococcus aureus, clinical MSSA S.aureus 59
Text: as §1, §2, §3, §4

S.aureus 57 (MSSA) = test: Broth dilution MIC/MBC, clinical MSSA isolate; format: cell-based; conditions: Staphylococcus aureus, clinical MSSA S.aureus 57
Text: as §1, §2, §3, §4

S.aureus 55 (MSSA) = test: Broth dilution MIC/MBC, clinical MSSA isolate; format: cell-based; conditions: Staphylococcus aureus, clinical MSSA S.aureus 55
Text: as §1, §2, §3, §4

S.aureus 56 (MSSA) = test: Broth dilution MIC/MBC, clinical MSSA isolate; format: cell-based; conditions: Staphylococcus aureus, clinical MSSA S.aureus 56
Text: as §1, §2, §3, §4

[3] = system: Enterococcus faecalis ATCC 11420; test: Broth dilution MIC/MBC, reference strain; format: cell-based
Procedure, shortened: (§5)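 Inhibitory and cidal endpoints rely on a serial dilution method run in triplicate. Growth inhibition is scored after 18 h at 37 °C (5 × 10^5 cfu/mL, MHB2), and cidal values after transfer to TSA with 48 h further incubation.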

[4] = system: Staphylococcus aureus ATCC 43300 (MRSA); test: Broth dilution MIC/MBC, reference strain; format: cell-based
Procedure, shortened: as §5

[5] = system: Staphylococcus epidermidis PCM 2118; test: Broth dilution MIC/MBC, reference strain; format: cell-based
Procedure, shortened: as §5

[6] = system: Staphylococcus aureus ATCC 6538 (MSSA); test: Broth dilution MIC/MBC, reference strain; format: cell-based
Procedure, shortened: as §5

[7] = system: Proteus vulgaris NCTC 4635; test: Broth dilution MIC/MBC, reference strain; format: cell-based
Procedure, shortened: as §5

[8] = system: Pseudomonas aeruginosa ATCC 15442; test: Broth dilution MIC/MBC, reference strain; format: cell-based
Procedure, shortened: as §5

[9] = system: Escherichia coli ATCC 11229; test: Broth dilution MIC/MBC, reference strain; format: cell-based
Procedure, shortened: as §5

[10] = system: Candida albicans ATCC 10231; test: Broth dilution MIC/MFC, reference fungal strain; format: cell-based
Procedure, shortened: as §5

S.aureus 50 (MRSA) = test: Broth dilution MIC/MBC, clinical MRSA isolate; format: cell-based; conditions: Staphylococcus aureus, clinical MRSA S.aureus 50
Text: as §1, §2, §3, §4

Cc1cc(S(=O)(=O)NC(=O)CCC2CCCCC2)c(SCc2cccc(C(F)(F)F)c2)cc1Cl [Compound 10, N-[4-Chloro-5-methyl-2-(3-trifluoromethylbenzylthio)benzenesulfonyl]-3-cyclohexylpropanamide]
IC50 [1]: 95 µg/mL and 178 µM | MIC ([2]; Staphylococcus aureus, reference MRSA and MSSA strains as well as clinical isolates, read-out: MIC): 4 to 8 µg/mL (≈ 7.49 to 15 µM) | MBC ([2]; Staphylococcus aureus, summary over ten clinical MRSA and MSSA isolates (Table 4), read-out: MBC): > 128 µg/mL | MIC ([2]; Staphylococcus aureus, summary over ten clinical MRSA and MSSA isolates (Table 4), read-out: MIC): 4 µg/mL (≈ 7.49 µM) | MIC ([2]; summary over ten clinical MRSA and MSSA isolates (Table 4)): 4 to 8 µg/mL | MBC (S.aureus 58 (MSSA); read-out: MBC): > 128 µg/mL | MIC (S.aureus 58 (MSSA); read-out: MIC): 4 µg/mL (≈ 7.49 µM) | MBC (S.aureus 59 (MSSA); read-out: MBC): > 128 µg/mL | MIC (S.aureus 59 (MSSA); read-out: MIC): 4 µg/mL (≈ 7.49 µM) | MBC (S.aureus 57 (MSSA); read-out: MBC): > 128 µg/mL | MIC (S.aureus 57 (MSSA); read-out: MIC): 4 µg/mL (≈ 7.49 µM) | MBC (S.aureus 55 (MSSA); read-out: MBC): > 128 µg/mL | MIC (S.aureus 55 (MSSA); read-out: MIC): 4 µg/mL (≈ 7.49 µM) | MBC (S.aureus 56 (MSSA); read-out: MBC): > 128 µg/mL | MIC (S.aureus 56 (MSSA); read-out: MIC): 4 µg/mL (≈ 7.49 µM) | MBC/MIC ([3]; E. f. ATCC 11420): 8 | MBC ([3]; Enterococcus faecalis, ATCC11420, E. faecalis ATCC 11420, read-out: MBC): 64 µg/mL (≈ 120 µM) | MIC ([3]; Enterococcus faecalis, ATCC11420, E. faecalis ATCC 11420, read-out: MIC): 8 µg/mL (≈ 15 µM) | MBC/MIC ([4]; S. a. ATCC 43300): 2 | MBC ([4]; Staphylococcus aureus, S. aureus ATCC 43300, read-out: MBC): 16 µg/mL (≈ 30 µM) | MIC ([4]; Staphylococcus aureus, S. aureus ATCC 43300, read-out: MIC): 8 µg/mL (≈ 15 µM) | MBC/MIC ([5]; S. e. PCM 2118): 1 | MBC ([5]; S. epidermidis PCM 2118): 8 µg/mL (≈ 15 µM) | MBC ([5]; Staphylococcus epidermidis, PCM2118, S. epidermidis PCM 2118, read-out: MBC): 4 to 16 µg/mL (≈ 7.49 to 30 µM) | MIC ([5]; Staphylococcus epidermidis, PCM2118, S. epidermidis PCM 2118, read-out: MIC): 8 µg/mL (≈ 15 µM) | MBC/MIC ([6]; S. a. ATCC 6538): 8 | MBC ([6]; Staphylococcus aureus, S. aureus ATCC 6538, read-out: MBC): 64 µg/mL (≈ 120 µM) | MIC ([6]; Staphylococcus aureus, S. aureus ATCC 6538, read-out: MIC): 8 µg/mL (≈ 15 µM) | MBC/MIC ([7]; P. v. NCTC 4635): >1 | MBC ([7]; Proteus vulgaris, NCTC4635, P. vulgaris NCTC 4635, read-out: MBC): > 128 µg/mL | MIC ([7]; Proteus vulgaris, NCTC4635, P. vulgaris NCTC 4635, read-out: MIC): 128 µg/mL (≈ 240 µM) | MBC/MIC ([8]; P. a. ATCC 15442): >1 | MBC ([8]; Pseudomonas aeruginosa, ATCC15442, P. aeruginosa ATCC 15442, read-out: MBC): > 128 µg/mL | MIC ([8]; Pseudomonas aeruginosa, ATCC15442, P. aeruginosa ATCC 15442, read-out: MIC): 128 µg/mL (≈ 240 µM) | MBC/MIC ([9]; E. c. ATCC 11229): >1 | MBC ([9]; Escherichia coli, ATCC11229, E. coli ATCC 11229, read-out: MBC): > 128 µg/mL | MIC ([9]; Escherichia coli, ATCC11229, E. coli ATCC 11229, read-out: MIC): 128 µg/mL (≈ 240 µM) | MFC/MIC ([10]; C. a. ATCC 10231): 2 | MFC ([10]; Candida albicans, ATCC10231, C. albicans ATCC 10231, read-out: MFC): 128 µg/mL (≈ 240 µM) | MIC ([10]; Candida albicans, ATCC10231, C. albicans ATCC 10231, read-out: MIC): 64 µg/mL (≈ 120 µM) | MBC (S.aureus 50 (MRSA); read-out: MBC): > 128 µg/mL | MIC (S.aureus 50 (MRSA); read-out: MIC): 4 µg/mL (≈ 7.49 µM)
